Test results: patent publication US7135464B2, “Method of administering decitabine” (SuperGen, Inc., priority 2002, dated 2006)
Values joined by “and” are separate entries in the source; they are usually repeats but may differ in a detail not shown here. Equal values may be shown once. Read-outs that look alike come from different tables or passages of the source.

Experiments:
[1] = aqueous solution, cited from earlier work
[2] = cited from earlier work
[3] = aqueous solution

- decitabine remaining in active form ([3]; storage at 4° C. for 6 days): less than 50%
- decitabine remaining in active form ([3]; storage at 25° C. for 1 day): less than 50%
SMILES: Nc1ncn([C@H]2C[C@H](O)[C@@H](CO)O2)c(=O)n1 [decitabine, 5-aza-2′-deoxycytidine]
- decrease of concentration of decitabine ([1]; after 4 hours at 25° C.): about 10%
- decrease of concentration of decitabine ([1]; after 24 hours at 4° C.): about 10%
- decitabine concentration in patients ([2]; 100 mg/m^2 as a 3-hour infusion): about 0.4 μg/ml and ~2 μM
- total urinary excretion, % of the administered dose ([2]; humans): less than 1%
- volume of distribution ([2]; humans): about 4.6 L/kg
